Assay results from patent US12036194B1, “Methods of administering solriamfetol to lactating women” (Axsome Malta Ltd., priority 2022, dated 2024).
Where a name gives a salt, the structure may show the parent alone. Read-outs that look alike come from different tables or passages of the source.

Key:
[1] = Phase 4 open-label single-dose study: pharmacokinetics of solriamfetol in plasma of healthy postpartum women; type: in vivo, human; details: for AUC(0-inf) / AUC(0-t) / Cmax / Vd/F / half-life / Tmax: female, human, po, 150 mg
Method: (§1) A Phase 4, open-label, single-dose study to evaluate the pharmacokinetics (PK) of solriamfetol in the breast milk and plasma of healthy postpartum women following oral administration of a 150 mg solriamfetol tablet.
(§2) The study was conducted in 6 healthy adult lactating women who were between 15 and 37 weeks postpartum and were administered a single oral dose of SUNOSI 150 mg. SUNOSI was excreted in breast milk with a milk to plasma AUC ratio of approximately 2:1. […] The average amount that would be passed to the infant was estimated to be 0.59 mg over 24 hours, which is about 4.0% of the maternal dose on a weight-adjusted basis. The data from the lactation study indicate that SUNOSI is transferred to breastmilk in nursing mothers, with the relative infant dose (RID) is approximately 4% of the maternal weight-adjusted dosage. Data to assess the effects of SUNOSI on a breastfed infant or on milk production is not provided. The developmental and health benefits of breastfeeding should be considered along with the mother's clinical need for SUNOSI and any potential adverse effects on the breastfed child from SUNOSI or from the underlying maternal condition. Breastfed infants should be monitored for adverse reactions, such as agitation, insomnia, anorexia, and reduced weight gain.
(§3) On Day −1, eligible subjects underwent the baseline procedures. On Day 1, 2 hours after a light breakfast, subjects were to receive a single dose of solriamfetol 150 mg with 240 mL of water. Subjects had to fast for approximately 4 hours after the first dose; water was allowed except for 1 hour before and 1 hour after dosing with the study drug.
(§4) Pharmacokinetic analysis of breast milk obtained from both breasts (by pumping) was evaluated prior to dose administration and at intervals up to 72 hours postdose. Blood samples were also collected for plasma solriamfetol quantitation and PK analysis predose and at timepoints up to 72 hours postdose. Solriamfetol breast milk and plasma concentrations were measured using validated bioanalytical methods. Safety was assessed throughout the study by 12-lead ECG, vital sign measurements, the Columbia-Suicide Severity Rating Scale (C-SSRS), and the incidence of adverse events (AE).
Blood samples for plasma PK evaluation were collected at the following time points: Predose, 1, 1.5, 3, 6, 8.5, 10, 13, 15, 21, 24, 28, 36, 44, and 72 hours following dosing on Day 1. General study methodology is outlined in Table 6.
(§5) Serial blood samples (4 mL) were collected and dispensed into labeled K2EDTA tubes. The actual time of blood collection for all samples was recorded on the eCRF. Solriamfetol concentration in breast milk and plasma were determined using a validated bioanalytical method (LC-MS/MS) at Origin Bioanalytical Laboratory. The analytical range (lower limit of quantitation [LLOQ] to upper limit of quantitation) for plasma solriamfetol was 8.42 to 4210.00 ng/mL, and breast milk solriamfetol was 10.0 to 8000 ng/mL.
Pharmacokinetic parameters were derived with Phoenix® WinNonlin® Version 8.3 (Certara, Inc., Princeton, New Jersey, USA) and/or SAS© Version 9.4 (SAS Institute, Inc., Cary, North Carolina, USA).
Pharmacokinetic concentrations and parameters were summarized using descriptive statistics, including n, arithmetic mean, SD, coefficient of variation (CV %), median, min, max, Geometric mean (Geo-mean) and the geometric coefficient of variation (Geo-CV %). For the PK parameter tmax, only n, median, minimum, and maximum was presented.

[2] = cited from earlier work
[3] = animals tested; cited from earlier work
[4] = Sunosi label, cited from earlier work
[5] = Phase 4 open-label single-dose study: pharmacokinetics of solriamfetol in breast milk of healthy postpartum women; type: in vivo, human; details: for Kp / AUC(0-inf) / AUC(0-t) / Cmax / half-life / Tmax: female, human, po, 150 mg; for Kp: breast milk / plasma
Method: as §1, §2, §3, §4
Breast milk collection: Solriamfetol concentration in breast milk and plasma was evaluated based on samples collected prior to and postdose on Days 1 to 4. Breast milk was collected from both breasts, using electronic breast pumps, during the following intervals: From −2 to 0 at predose and at 0 to 2, 2 to 4, 4 to 8, 8 to 12, 12 to 18, 18 to 24, 24 to 32, 32 to 40, 40 to 48, and 48 to 72 hours postdose on Day 1. The midpoint of each breast milk collection interval was used as the time variable.
Breast milk was collected as often as needed during the assigned intervals; however, at the end of each interval, breast milk was pumped from both breasts and collected. At the end of each collection interval, all milk expressed from both breasts during that interval was pooled. The milk was thoroughly mixed by gently inverting the collection vessel 10 times to ensure homogeneity in milk composition. The weight and volume of the collected milk during each interval was also recorded.
as §5
Pharmacokinetic parameters were derived with Phoenix® WinNonlin® Version 8.3 (Certara, Inc., Princeton, New Jersey, USA) and/or SAS© Version 9.4 (SAS Institute, Inc., Cary, North Carolina, USA). […]

[6] = single oral 150 mg solriamfetol tablet, N = 6
[7] = single oral 150 mg solriamfetol tablet, N = 6, hydrochloride
[8] = single oral 150 mg solriamfetol tablet, N = 6, listed as solriamfetol, hydrochloride
[9] = healthy male and female patients not postpartum
[10] = breast milk, single oral 150 mg solriamfetol tablet, N = 6, hydrochloride
[11] = breast milk, single oral 150 mg, N = 6
[12] = breast milk, single oral 150 mg, N = 6, hydrochloride
[13] = breast milk, single oral 150 mg, N = 6, listed as solriamfetol, hydrochloride
[14] = over 72 hours, single oral 150 mg

NC(=O)OC[C@H](N)Cc1ccccc1 [Solriamfetol, (R)-2-amino-3-phenylpropyl carbamate (APC) hydrochloride]
AUC(0-inf) ([1]; single oral 150 mg solriamfetol tablet, N = 6, read-out: AUC0-inf, Geometric Mean): 6340 ng·h/mL
AUC(0-t) ([1]; single oral 150 mg solriamfetol tablet, N = 6, read-out: AUC0-t, Arithmetic Mean (CV %)): 6440 ng·h/mL
AUC(0-t) ([1]; single oral 150 mg solriamfetol tablet, N = 6, read-out: AUC0-t, Geometric Mean): 6240 ng·h/mL
Cmax ([1]; single oral 150 mg solriamfetol tablet, N = 6, read-out: Cmax, Arithmetic Mean (CV %)): 905 ng/mL
Cmax ([1]; single oral 150 mg solriamfetol tablet, N = 6, read-out: Cmax, Geometric Mean): 892 ng/mL
Vd/F ([1]; single oral 150 mg solriamfetol tablet, N = 6, read-out: Vz/F, Arithmetic Mean (CV %)): 169 L
Vd/F ([1]; single oral 150 mg solriamfetol tablet, N = 6, read-out: Vz/F, Geometric Mean): 162 L
half-life ([1]; single oral 150 mg solriamfetol tablet, N = 6, read-out: t1/2, Arithmetic Mean (CV %) (converted)): 4.8 h
half-life ([1]; single oral 150 mg solriamfetol tablet, N = 6, read-out: t1/2, Geometric Mean (converted)): 4.75 h
Tmax ([1]; single oral 150 mg solriamfetol tablet, N = 6, read-out: tmax, Median (min, max)): 1.25 h
AUC(0-inf) ([1]; single oral 150 mg solriamfetol tablet, healthy postpartum women N = 6, read-out: AUC0-inf, Arithmetic Mean (CV %)): 6540 ng·h/mL
half-life ([1]; single oral 150 mg, read-out: t1/2 (approximate) (converted)): ~5 h
Tmax ([1]; single oral 150 mg, read-out: tmax range): 1 to 3 h
CL/F, Geometric Mean [1, 6]: 23.66 L/h
Lambda_z, Arithmetic Mean (CV %) [1, 6]: 0.1478 (19.1) 1/h
Lambda_z, Geometric Mean [1, 6]: 0.1459 h⁻¹
CL/F, Arithmetic Mean (CV %) [1, 7]: 24.40 (26.8) L/h
t1/2, Arithmetic Mean (CV %) [1, 7]: 4.804 (15.2) h
CL/F, Arithmetic Mean (CV %) [1, 8]: 24.40 L/h
tmax, Median (min, max) [1, 8]: 1 h
PK in fed versus fasted subjects ([2]; fed versus fasted): satisfied the criteria for bioequivalence
systemic elimination half-life ([2]; in vivo): 5.0 to 7.6 h
estimated accumulation ratio ([2]; once daily dosing): 1.06
absorption and oral bioavailability [3]: rapid absorption and high oral bioavailability
exposure (maximum serum concentration and AUC) versus dose [3]: dose-proportional exposure
apparent mean elimination plasma half-life [4, 9]: 7.1 h
oral bioavailability [4, 9]: approximately 95%
median Tmax of peak plasma concentration ([4]; post-dose under fasted conditions, not postpartum): 2 h
Milk:Plasma Ratio, Arithmetic Mean (CV %) ([5]; AUC in breast milk divided by AUC in plasma, single oral 150 mg, N = 6): 2.136 (35.8)
time by which near complete excretion in breast milk was observed ([5]; after dosing, single oral 150 mg): ≤ 24 h
Amilk, Geometric Mean ([5]; amount excreted in breast milk over 72 hours, single oral 150 mg, N = 6): 0.5651 mg
Amilk, Arithmetic Mean (CV %) ([5]; amount excreted in breast milk over 72 hours, single oral 150 mg, N = 6, hydrochloride): 0.6880 (67.9) mg
Amilk, Arithmetic Mean (CV %) ([5]; amount excreted in breast milk over 72 hours, single oral 150 mg, N = 6, listed as solriamfetol, hydrochloride): 0.6880 mg
Lambda_z, Arithmetic Mean (CV %) ([5]; breast milk, single oral 150 mg solriamfetol tablet, N = 6): 0.1446 (18.8) 1/h
t1/2, Arithmetic Mean (CV %) [5, 10]: 4.954 (21.4) h
tmax, Median (min, max) [5, 10]: 1.12 h
Daily Infant Dose, Geometric Mean [5, 11]: 0.5856 mg
Relative Infant Dose, Geometric Mean [5, 11]: 4.030%
Daily Infant Dose, Arithmetic Mean (CV %) [5, 12]: 0.6927 (63.5) mg
Relative Infant Dose, Arithmetic Mean (CV %) [5, 12]: 4.602 (60.6) %
Daily Infant Dose, Arithmetic Mean (CV %) [5, 13]: 0.6927 mg
Relative Infant Dose, Arithmetic Mean (CV %) [5, 13]: 4.602%
average amount that would be passed to the infant ([5]; estimated, over 24 hours, single oral 150 mg): 0.59 mg
share of the total amount excreted in breast milk over 72 hours ([5]; excreted by 8 hours): approximately 78%
share of the total amount excreted in breast milk over 72 hours ([5]; excreted by 24 hours): ~98%
Kp ([5]; AUC in breast milk divided by AUC in plasma, single oral 150 mg, N = 6, read-out: Milk:Plasma Ratio, Geometric Mean): 2.05
Kp ([5]; breast milk vs plasma, single oral 150 mg, read-out: solriamfetol exposure/concentrations (Cmax, AUCs) in breast milk relative to plasma): ~2
AUC(0-inf) ([5]; breast milk, breast milk, single oral 150 mg solriamfetol tablet, N = 6, read-out: AUC0-inf, Geometric Mean): 12900 ng·h/mL
AUC(0-t) ([5]; breast milk, breast milk, single oral 150 mg solriamfetol tablet, N = 6, read-out: AUC0-t, Arithmetic Mean (CV %)): 13700 ng·h/mL
AUC(0-t) ([5]; breast milk, breast milk, single oral 150 mg solriamfetol tablet, N = 6, read-out: AUC0-t, Geometric Mean): 12800 ng·h/mL
Cmax ([5]; breast milk, breast milk, single oral 150 mg solriamfetol tablet, N = 6, read-out: Cmax, Arithmetic Mean (CV %)): 2070 ng/mL
Cmax ([5]; breast milk, breast milk, single oral 150 mg solriamfetol tablet, N = 6, read-out: Cmax, Geometric Mean): 1860 ng/mL
half-life ([5]; breast milk, breast milk, single oral 150 mg solriamfetol tablet, N = 6, read-out: t1/2, Arithmetic Mean (CV %) (converted)): ~5 h
half-life ([5]; breast milk, breast milk, single oral 150 mg solriamfetol tablet, N = 6, read-out: t1/2, Geometric Mean (converted)): 4.87 h
Tmax ([5]; breast milk, breast milk, single oral 150 mg solriamfetol tablet, N = 6, read-out: tmax, Median (min, max)): ~1.1 h
AUC(0-inf) ([5]; breast milk, breast milk, single oral 150 mg solriamfetol tablet, healthy postpartum women N = 6, read-out: AUC0-inf, Arithmetic Mean (CV %)): 13800 ng·h/mL
half-life ([5]; breast milk, breast milk, single oral 150 mg, read-out: t1/2 (approximate) (converted)): ~5 h
Tmax ([5]; breast milk, breast milk, single oral 150 mg, read-out: tmax range): 1 to 3 h
daily infant dose ([5]; further analysis, based on nominal infant weight of 6 kg, maternal single oral 150 mg): 0.112 mg/kg
Arithmetic mean±SD amount excreted in breast milk [5, 14]: 0.6880 ± 0.4672 mg
cumulative median amount excreted in breast milk [5, 14]: 0.67 mg
